Test results from patent publication US4065575A, “3-Aminomethyl derivatives of 4-chromanone” (Joullie International, priority 1975, dated 1977).
Entries after “also recorded” stand apart in the source; their conditions may differ. Counter-ions that a name gives are not always drawn.

Legend:
[1] = system: isolated auricle of a rabbit; test: Peripheral vasomotoricity, isolated and perfused auricle of a rabbit; settings: for activation at 0.0001 mg / activation at 0.001 mg / activation at 0.01 mg / activation at 0.1 mg: Oryctolagus cuniculus, read-out: Maximum variations in the flow rate; for activation at 0.0001 mg: dose 0.1 μg.; for activation at 0.001 mg: dose 1 μg.; for activation at 0.01 mg: dose 10 μg.; for activation at 0.1 mg: dose 100 μg.; for peripheral vasodilatory action: in words; for duration of the effects / of the action: at the highest doses
Description: The flow rate of the liquid issuing from the veins is recorded by electronic contact on a polygraph. The products to be studied are injected at increasing doses into the perfusion tube and their actions are compared to that of isoxsuprine used as the reference substance.
The results, collected in Table No. III, are expressed in the maximum percentage increase of the flow rate at the various doses used.

[2] = system: hypertensive effects of electrical stimulation, adrenaline and noradrenaline; test: α-Sympatholytic effects in amyeliated rats; format: in vivo; settings: for % variation of the hypertensive effects obtained with adrenaline: adrenaline 1.25 to 2.5 μg./kg.; for % variation of the hypertensive effects obtained with noradrenaline: noradrenaline 1.25 to 2.5 μg./kg.
Source text: The α-sympatholytic effects of LJ 1052 and LJ 1053 are compared with those of isoxsuprine in amyeliated rats which have been prepared by a method derived from those of Shipley and Tilden (Proc. soc. Exp. Biol. Med. 1947, 64, 453-455) and of Gillespie and Muir (Br. J. Pharmac. Chemother. 1967, 30, 78-87).
The effects on the blood pressure of electrical stimulation of the thoracolumbar sympathic nerve (rectangular signals = voltage 20 to 40 volts; width 2 m. sec; frequency 10 secs.; duration 5 to 10 secs.) and of injections of adrenaline (1.25 to 2.5 μg./kg.) and of noradrenaline (1.25 to 2.5 μg./kg.) are determined before and after injection of the products tested.

[3] = Cardiovascular action in dogs; format: in vivo, male Beagle dogs
Description: Male Beagle dogs weighing 9 to 12 kg. were anaesthetised by intrasaphenous injection of a 2% solution of chloralose in physiological solution, at a dose of 100 mg./kg.
The anaesthesia is maintained by slow perfusion of 5% pentobarbital (1.2 ml./hour).
The animals are tracheotomised and placed under assisted respiration by means of a Bird respirator. Their oxygenation and their acid-base equilibrium are controlled by determination of the pH, the pCO2 and the pO2 on blood samples taken from a collateral of the brachial artery (pH/gas analyser for blood, IL model 213/227).
The different parameters are recorded on a polygraph.

[4] = system: mice; test: Acute toxicity in mice (LD 50); format: in vivo; settings: intravenous; in words
Description: (§1) The study is carried out on batches of 5 Swiss female mice of the NMRI Han. strain. The products are administered either intravenously (into the caudal vein) in solution in a 9 g..permill. sodium chloride solution, or orally (probang) in suspension in a 10% solution of gum arabic.
(§2) The animals are observed for the 15 days following the administration of the products.
(§3) The LD 50 values are calculated by the method of Karber and Behrens (Arch. Exp. Pathol. Pharm. 177, 1935, page 379).

[5] = system: isolated duodenum of a rat; test: Musculotropic spasmolytic action on the isolated duodenum of a rat (barium chloride contraction); settings: in words
Description: The experiments are carried out in accordance with the method of Magnus R. (Arch. ges. Physiol. 1904, 102, 123) on the isolated duodenum of a rat, surviving in oxygenated Tyrode liquid and kept at 38° C. The tonus and the pendular movements of the duodenum were recorded by means of a strain gauge on an electronic polygraph.
The inherent action of the products, and the antagonism exerted against the musculotropic contraction-inducing action of barium chloride was examined. Papaverine is used as the reference substance.

[6] = Acute toxicity in mice (LD 50); format: in vivo; settings: mouse, in vivo, mice, 15 days observation
Description: as §1, §2, §3

[7] = dose 50 g./kg. (so in the source)
[8] = dose 100 g./kg. (so in the source)
[9] = dose 500 g./kg. (so in the source)
[10] = 0.04 mg./kg. i.v. (1/1,000 LD 50)
[11] = 0.04 mg./kg. i.v. (1/1,000 LD 50), first or only phase
[12] = 0.04 mg./kg. i.v. (1/1,000 LD 50), then
[13] = 0.5 mg./kg. i.v. (1/50 LD 50), then
[14] = 0.6 mg./kg. i.v. (1/50 LD 50), first phase
[15] = 0.6 mg./kg. i.v. (1/50 LD 50), then

## CC(COc1ccccc1)NC(C)C(O)c1ccc(O)cc1 (centres unmarked) [Isoxsuprine, reference compound]
[1]
  activation at 0.0001 mg: 38%
  activation at 0.001 mg: 61%
  activation at 0.01 mg: 117%
  activation at 0.1 mg: 175%
[2]; [7]
  % variation of the hypertensive effects obtained with electrical stimulation: -27%
  % variation of the hypertensive effects obtained with adrenaline: -69%
  % variation of the hypertensive effects obtained with noradrenaline: -36%
[2]; [8]
  % variation of the hypertensive effects obtained with electrical stimulation: -25%
  % variation of the hypertensive effects obtained with adrenaline: -75%
  % variation of the hypertensive effects obtained with noradrenaline: -44%
[2]; [9]
  % variation of the hypertensive effects obtained with electrical stimulation: -66%
  % variation of the hypertensive effects obtained with adrenaline: -100%
  % variation of the hypertensive effects obtained with noradrenaline: -67%
[3]; [10]
  Diastolic AP, duration of action: 20 min
  Diastolic AP, maximum per cent variation: -62%
  FF (mean flow rate of the femoral artery), maximum per cent variation: +63%
  FF, duration of action: 30 min
  Hb (heart beat), maximum per cent variation: +13%
  Hb, duration of action: 25 min
  LVP, duration of action: 5 min
  Mean AP, duration of action: 20 min
  Mean AP, maximum per cent variation: -50%
  Systolic AP, duration of action: 10 min
  Systolic AP, maximum per cent variation: +13%
[3]; [11]
  LVP (left ventricular pressure), maximum per cent variation: -22%
  dLVP/dt, maximum per cent variation: -18%
[3]; [12]
  dLVP/dt, duration of action, second phase ("then"): 5 min
  dLVP/dt, maximum per cent variation, second phase ("then"): +12%
[4]
  intravenous LD 50 in mice (comparison of three products): practically identical

## CCCCCNCC1COc2ccccc2C1=O (centres unmarked) [LJ 1046, 3-(n-Pentylaminomethyl)-4-chromanone hydrochloride]
[1]
  activation at 0.0001 mg: 38%
  activation at 0.001 mg: 29%
  activation at 0.01 mg: 61%
  activation at 0.1 mg: 77%
[1]; all doses (0.1 to 100 μg.)
  maximum increases in the flow rate: ≤ 100%
[5]
  musculotropic spasmolytic action compared with papaverine / within the series: the most active
[3]; 0.36 mg./kg. i.v. (1/50 LD 50)
  FF (mean flow rate of the femoral artery), maximum per cent variation: +100%
  FF, duration of action: > 20 min
  Hb (heart beat), maximum per cent variation: +30%
  Hb, duration of action: > 20 min
  LVP (left ventricular pressure), maximum per cent variation: -20%
  LVP, duration of action: > 20 min
  Mean AP, duration of action: > 20 min
  Mean AP, maximum per cent variation: -36%
  dLVP/dt, duration of action: > 20 min
  dLVP/dt, maximum per cent variation: +43%
[6]; intravenous administration
  LD50 at 360 h: 18 mg/kg
[6]; oral administration
  LD50 at 360 h: 237 mg/kg

## CCCNCC1COc2ccccc2C1=O (centres unmarked) [LJ 1048, 3-(n-Propylaminomethyl)-4-chromanone hydrochloride]
[1]
  activation at 0.0001 mg: 22%
  activation at 0.001 mg: 33%
  activation at 0.01 mg: 33%
  activation at 0.1 mg: 29%
  peripheral vasodilatory action: low activity
[3]; 0.7 mg./kg. i.v. (1/50 LD 50)
  Hb (heart beat), maximum per cent variation: +33%
  Hb, duration of action: > 60 min
  LVP (left ventricular pressure), maximum per cent variation: -21%
  LVP, duration of action: 30 min
  Mean AP, duration of action: > 60 min
  Mean AP, maximum per cent variation: -38%
  dLVP/dt, duration of action: 60 min
  dLVP/dt, maximum per cent variation: +28%
[6]; intravenous administration
  LD50 at 360 h: 36 mg/kg
[6]; oral administration
  LD50 at 360 h: 362 mg/kg

## CCCCNCC1COc2ccccc2C1=O (centres unmarked) [LJ 1049, 3-(n-Butylaminomethyl)-4-chromanone hydrochloride]
[1]
  activation at 0.0001 mg: 36%
  activation at 0.001 mg: 36%
  activation at 0.01 mg: 115%
  activation at 0.1 mg: 138%
  duration of the effects / of the action: ≥ 30 min
  peripheral vasodilatory action: great
[3]; 0.5 mg./kg. i.v. (1/50 LD 50)
  FF (mean flow rate of the femoral artery), maximum per cent variation: +34%
  FF, duration of action: 2 min
  Hb (heart beat), maximum per cent variation: +21%
  Hb, duration of action: 40 min
  LVP (left ventricular pressure), maximum per cent variation: -19%
  LVP, duration of action: 50 min
  Mean AP, duration of action: 10 min
  Mean AP, maximum per cent variation: -15%
[3]; 0.5 mg./kg. i.v. (1/50 LD 50), first phase
  dLVP/dt, maximum per cent variation: -10%
[3]; [13]
  dLVP/dt, duration of action, second phase ("then"): 10 min
  dLVP/dt, maximum per cent variation, second phase ("then"): +20%
[6]; intravenous administration
  LD50 at 360 h: 24 mg/kg
[6]; oral administration
  LD50 at 360 h: 262 mg/kg

## COCCCNCC1COc2ccccc2C1=O (centres unmarked) [LJ 1051, 3-(3-Methoxy-n-propylaminomethyl)-4-chromanone hydrochloride]
[1]
  activation at 0.0001 mg: 0%
  activation at 0.001 mg: 36%
  activation at 0.01 mg: 100%
  duration of the effects / of the action: ≥ 30 min
  peripheral vasodilatory action: great
[3]; 0.6 mg./kg. i.v. (1/50 LD 50)
  LVP (left ventricular pressure), maximum per cent variation: -30%
  LVP, duration of action: > 50 min
  Mean AP, duration of action: > 50 min
  Mean AP, maximum per cent variation: -21%
  dLVP/dt, duration of action: > 50 min
  dLVP/dt, maximum per cent variation: -60%
[3]; [14]
  Hb (heart beat), maximum per cent variation: +20%
  Hb, duration of action: 3 min
[3]; [15]
  Hb, duration of action, second phase ("then"): 40 min
  Hb, maximum per cent variation, second phase ("then"): -16%
[6]; intravenous administration
  LD50 at 360 h: 33 mg/kg
[6]; oral administration
  LD50 at 360 h: 475 mg/kg

## COCCCCNCC1COc2ccccc2C1=O (centres unmarked) [LJ 1053, 3-(4-Methoxy-n-butylaminomethyl)-4-chromanone hydrochloride]
[1]
  activation at 0.0001 mg: 23%
  activation at 0.001 mg: 92%
  activation at 0.01 mg: 133%
  activation at 0.1 mg: 183%
  duration of the effects / of the action: ≥ 30 min
[1]; hydrochloride
  peripheral vasodilatory action: great; also recorded: as active as isoxsuprine
[2]; [7]
  % variation of the hypertensive effects obtained with electrical stimulation: -11%
  % variation of the hypertensive effects obtained with adrenaline: -18%
  % variation of the hypertensive effects obtained with noradrenaline: -12%
[2]; [8]
  % variation of the hypertensive effects obtained with electrical stimulation: -55%
  % variation of the hypertensive effects obtained with adrenaline: -47%
  % variation of the hypertensive effects obtained with noradrenaline: -41%
[3]; [10]
  Diastolic AP, duration of action: 5 min
  Diastolic AP, maximum per cent variation: -60%
  FF (mean flow rate of the femoral artery), maximum per cent variation: +104%
  FF, duration of action: 3 min
  Hb (heart beat), maximum per cent variation: +23%
  Hb, duration of action: > 30 min
  LVP, duration of action: > 10 min
  Mean AP, duration of action: 5 min
  Mean AP, maximum per cent variation: -45%
  Systolic AP, duration of action: 15 min
  Systolic AP, maximum per cent variation: +23%
[3]; [11]
  LVP (left ventricular pressure), maximum per cent variation: -17%
  dLVP/dt, maximum per cent variation: -12%
[3]; [12]
  dLVP/dt, duration of action, second phase ("then"): > 10 min
  dLVP/dt, maximum per cent variation, second phase ("then"): +25%
[4]
  intravenous LD 50 in mice (comparison of three products): practically identical
[6]; intravenous administration
  LD50 at 360 h: 38 mg/kg
[6]; oral administration
  LD50 at 360 h: 285 mg/kg
